Results taken from patent publication US9682078B2, “Compositions and methods for tissue engineering and cell based therapies” (University of Virginia Patent Foundation, priority 2011, dated 2017).

Columns and labels:
dorsal tissue = assay: Murine dorsal skinfold window chamber with PLAGA films, flow cytometry of dorsal tissue; type: in vivo, mouse; conditions: local application from PLAGA films
Experimental: (§1) 1 mm poly(lactic-co-glycolic acid) PLAGA films loaded with S1P receptor compounds are placed within the window chamber as shown. Repeated measurements of the same vessel networks are recorded and quantified over a 7-day time course using intravital microscopy. (FIG. 3).
(§2) Backpacks were implanted with PLAGA films and collagenase was used to digest dorsal tissue directly around the implants after 3 days to create single cell suspensions. Flow cytometry was used to assess cellular content. A feeder artery to the spinotrapezius muscle was ligated, creating an ischemic environment, and confocal microscopy on whole-mounted tissue was used to assess CX3CR1 expression in the muscle (FIG. 5).

[1] = in vivo; cited from earlier work
[2] = tested on: CD45+/CD11b+/Ly6Clow/CX3CR1high anti-inflammatory monocytes (AM); assay: Transwell migration of sorted anti-inflammatory monocytes after FTY720 pre-treatment; type: cell-based, mouse; conditions: FIG. 6A
Source text: (§3) CD45^+/CD11b^+/Ly6C^low/CX3CR1^high anti-inflammatory monocytes (AM) and CD45^+/CD11b^+/Ly6C^high/CX3CR1^low inflammatory monocytes (IM) (FIG. 6C) were sorted from mouse marrow. […] In vivo, in tissue from the murine dorsal skinfold window chamber, the recruitment of IMs to dorsal tissue was attenuated with local FTY720 application from PLAGA films (FIG. 6D). Cells that are CD45^+/CD11b^+/Ly6C^high/CX3CR1^low/CD105^+ and have a decreasing expression of Sca1 (a progenitor cell marker) are consistent with endothelial progenitor derived endothelial cells (EPC-ECs). […] Local FTY720 stimulation attenuates the infiltration of inflammatory cells and recruits regenerative stem cells. (See FIGS. 3-6).

[3] = tested on: CD45+/CD11b+/Ly6Chigh/CX3CR1low inflammatory monocytes (IM); assay: Transwell migration of sorted inflammatory monocytes after FTY720 pre-treatment; type: cell-based, mouse; conditions: FIG. 6B
Source text: as §3

dorsal microvasculature [4] = assay: Murine dorsal skinfold window chamber, intravital microscopy of microvascular remodeling; type: in vivo, mouse; conditions: S1P3 selectively antagonized on marrow-derived cells (BM S1P3−/−); 3 days post-implantation; FIG. 8
Experimental: as §1

[5] = tested on: Lineage1−/Sca1+/c-kit+ (LSK) hematopoietic stem cells; assay: Transwell migration of sorted LSK hematopoietic stem cells toward SDF-1 and S1P; type: cell-based, mouse; conditions: cells pre-treated with compound (15 nM for VPC01091, VPC01211)
Experimental: Whole bone marrow cells were harvested from C57Bl/6 mice tibiae. They were pre-labeled with antibodies against Lineage 1, Sca1, and c-kit and the LSK subset were sorted, serum starved, and plated at equal concentration after pre-treatment with FTY720. Migration toward media, SDF1, and S1P was calculated.
Hematopoietic stem cell migration was also studied (FIG. 17). Lineage1−/Sca1+/c-kit+ (LSK) hematopoietic stem cells were sorted and serum starved for two hours. Cells were pre-treated with 15 nM VPC01211 or not and plated for transwell migration assays toward plain media, SDF-1 or S1P.

[6] = tested on: critical size calvarial bone defects; conditions: 3D PLAGA scaffolds delivering FTY720; cited from earlier work
dorsal microvasculature [7] = conditions: sustained release from 50:50 PLAGA films (1:200 wt/wt); cited from earlier work
[8] = tested on: ischemic spinotrapezius muscle; assay: Arterial ligation of spinotrapezius muscle with PLAGA film implantation, confocal microscopy; type: in vivo, mouse; conditions: FIG. 7
Source text: as §2

bone marrow cells = assay: Transwell migration of bone marrow cells toward SDF-1; type: cell-based, rat; conditions: pre-treated 10 ng/ml 30 minutes
Experimental: Bone marrow cells were collected from the tibia of Sprague Daley rats (Charles River), scrum starved for 2 hours, and the cell suspension at 2×10^6 cells/ml was pre-treated with serum-free medium, or 10 ng/ml FTY720-P (Cayman) for 30 minutes and then were re-suspended in serum-free DMEM (Invitrogen). 100 μl of the pre-treated cell suspension was added to the top of 5 μm transwell inserts (Costar) in a 24-well plate. The bottom of the wells contained 600 μl of serum-free DMEM or 12.5 nM SDF-1 (ProspecBio). The cells were incubated at 37° C. for 4 hours, and then the number of cells at the top and the bottom of the transwells were counted using an automatic cell counter. The cells that migrated toward SDF-1 after pre-treatment with FTY720-P were collected from the bottom of the transwells and treated with monoclonal antibodies to CD45, CD11b and CD90 prior to flow analysis. Flow cytometry was performed according to standard procedures and was analyzed on a 9 color CyAn flow cytometer.

[9] = in the absence of a carrier protein; cited from earlier work
S1P1 receptor = S1P1 receptor (Homo sapiens, UniProt P21453); conditions: cited from earlier work
donor (GFP+) cells = assay: Bone marrow transplant after lethal irradiation with equal number of mobilized cells; conditions: two-week chimerism after competitive BMT with equal numbers of mobilized cells; FIG. 10D
Experimental: WT mice were irradiated & reconstituted with mobilized peripheral blood cells from GFP+ mice. After varying amounts of time, blood was collected via the retro-orbital sinus and bone marrow was harvested to assess chimerism over time.
100 μL blood was plated on methocult stem cell differentiation medium and after 6 days colony forming units were quantified. […] Cells tested included—Host cells, PB donor cells and BM donor cells were tested. Treatments included—AMD cells, A+V cells, AMD Sca1+, A+V Sca1+, AMD CD45+, A+V CD45+, AMD CD11b+, and A+V CD11b+.

5 mm cranial defects = assay: Rat cranial critical size bone defect, microCT and flow cytometry; type: in vivo
Experimental: 5 mm cranial defects were made in 36 nine weeks old Sprague Daley rats, which were divided into 4 groups (n=9). The rats were treated with a systemic dose of 1 mpk VPC01091, FTY720 coated semi-circular allograft, FTY720 coated semi-circular allograft+a systemic dose of 1 mpk VPC01091 or left untreated. VPC01091 was given the day after surgery and 3 weeks post-surgery. Hemavet (Drew Scientifics) was used to measure the concentrations of blood cells at days 0, week 1 and week 2 (n=6) (data not shown). The amount of bone regeneration was measured bi-weekly with microCT imaging (n=3-9). Flow cytometry was performed according to standard procedures on the tissue harvested from the defect sites at week 3 (n=3), and from peripheral blood at week 6 (n=3). Monoclonal antibodies (Invitrogen, Abeam) for rat CD45, CD11b, CD54, CD90 were used in both cases. Mason's Trichrome and H&E staining were done for done for all groups (n=3).

S1P3 receptor = S1P3 receptor (Homo sapiens, UniProt Q99500); conditions: cited from earlier work
[10] = tested on: whole BMCs on FBMD-1 stromal cells; assay: Cobblestone area-forming cell assay; type: cell-based, mouse; conditions: BMCs pre-treated 30 minutes; FIG. 19
Source text: Ordinate—% Positive Wells.

smooth muscle = conditions: daily injections; cited from earlier work
[11] = PLAGA film, ligated feeder artery

Sequence of S1P3 receptor (Q99500 whole entry): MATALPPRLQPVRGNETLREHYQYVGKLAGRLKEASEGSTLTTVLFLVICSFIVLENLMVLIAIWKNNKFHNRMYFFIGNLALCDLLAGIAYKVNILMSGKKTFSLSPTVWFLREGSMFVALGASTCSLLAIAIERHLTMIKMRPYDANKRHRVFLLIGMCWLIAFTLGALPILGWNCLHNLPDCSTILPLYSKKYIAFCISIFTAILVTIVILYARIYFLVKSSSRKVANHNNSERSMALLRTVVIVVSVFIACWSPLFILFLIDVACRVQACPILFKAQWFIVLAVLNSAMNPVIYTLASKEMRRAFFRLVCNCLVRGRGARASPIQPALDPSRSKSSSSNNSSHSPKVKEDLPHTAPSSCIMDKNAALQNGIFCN
Sequence of S1P1 receptor (P21453 whole entry): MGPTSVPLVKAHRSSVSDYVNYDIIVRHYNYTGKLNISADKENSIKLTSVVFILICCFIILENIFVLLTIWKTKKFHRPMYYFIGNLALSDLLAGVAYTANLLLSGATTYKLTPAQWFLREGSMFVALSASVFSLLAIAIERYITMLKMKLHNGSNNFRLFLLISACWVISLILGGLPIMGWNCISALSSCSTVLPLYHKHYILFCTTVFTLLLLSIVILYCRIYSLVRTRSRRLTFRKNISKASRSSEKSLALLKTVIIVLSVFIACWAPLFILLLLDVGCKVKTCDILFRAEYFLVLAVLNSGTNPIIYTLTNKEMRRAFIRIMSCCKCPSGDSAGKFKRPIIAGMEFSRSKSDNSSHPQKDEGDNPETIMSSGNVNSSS

CCCCCCCCc1ccc(CCC(N)(CO)CO)cc1 [FTY720, 2-amino-2-[2-(4-octylphenyl)ethyl]propane 1,3-diol]
EPC-ECs in dorsal tissue (dorsal tissue): increased
recruitment of IMs to dorsal tissue (dorsal tissue; FIG. 6D): attenuated
half-life [1]: approximately 7 days
migration of AMs towards SDF-1 [2]: increased
migration of IMs towards S1P [3]: decreased
migration of IMs towards SDF-1 [3]: decreased
FTY720-induced microvascular remodeling (dorsal microvasculature [4]): impaired
HSC migration / homing toward S1P [5]: abolishes
HSC migration / homing toward SDF-1 [5]: improves
osseous tissue ingrowth [6]: significantly increases
proportion of mature smooth muscle cell-invested microvessels within the bony defect [6]: significantly increases
arteriole formation and enlargement (dorsal microvasculature [7]): promotes formation of new arterioles and structural enlargement of existing arterioles
recruitment of vessel-associated CX3CR1+ cells ([8]; CX3CR1-eGFP mice): recruitment of vessel-associated CX3CR1+ cells
remodeling in ischemic muscle [8, 11]: induces remodeling in ischemic muscle
tortuosity of vessels [8, 11]: promotes tortuosity of vessels

CCCCCCCCc1ccc(CC[C@](N)(CO)COP(=O)(O)O)cc1 [FTY720-P]
total number of cells migrating toward SDF-1 (bone marrow cells; 12.5 nM SDF-1, 4 hours, FIG. 11E): significantly increased
percentage of CD90+; CD45−/CD11b− cells migrating toward SDF-1 (bone marrow cells; FIG. 11F): higher percentage

CCCCCCCCCCCCC/C=C/[C@@H](O)[C@@H](N)COP(=O)(O)O [S1P, Sphingosine 1-phosphate]
half-life in blood [1]: less than 1 hour
solubility in aqueous solutions [9]: insoluble

CCCCCCCCc1ccc(C2CCC(N)(CO)C2)cc1 (stereo not shown) [VPC01091]
activity at S1P1 receptor (S1P1 receptor): agonist
engraftment and repopulation efficiency in vivo (donor (GFP+) cells): does not impair
HSC migration / homing toward S1P [5]: sensitized
HSC migration / homing toward SDF-1 [5]: desensitized
bone regeneration compared to the empty defect controls (5 mm cranial defects; systemic 1 mpk, day after surgery and 3 weeks post-surgery, microCT, FIG. 11): substantial bi-weekly increase
percentage of CD54 and CD90 positive cells in the defect region (5 mm cranial defects; week 3, FIG. 12a): increase
percentage of CD54 and CD90 positive cells in the blood (5 mm cranial defects; week 6, FIG. 12b): increase
activity at S1P3 receptor (S1P3 receptor): antagonist

CCCCCCCCc1ccc(C2CCC(N)(COP(=O)(O)O)C2)cc1 (stereo not shown) [VPC01211]
HSC migration / homing toward S1P [5]: did not affect
HSC migration / homing toward SDF-1 [5]: abrogated
adhesion / engraftment on bone marrow stromal cell layer [10]: less engraftment than AMD3100

CCCCCCCCc1cccc(NC(=O)[C@H](N)CCP(=O)(O)O)c1 [VPC44116]
smooth muscle proliferation and migration (smooth muscle): significantly decreased
